Results taken from PubChem BioAssay AID549 (SRMLSC, 2006).
Calls of active or inactive are those of the source.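 How the source made its calls: active means clearly stronger inhibition of phosphomevalonate kinase than of the coupling enzymes alone in a parallel counterscreen; inactive means the rest.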

Each molecule was assayed against phosphomevalonate kinase (Streptococcus pneumoniae D39) (assay: phosphomevalonate kinase inhibition IC50 – biochemical, mevalonate pathway, coupling enzyme counter-screen, dose response (AID 549)). Conditions: PMK enzyme, PK/LDH coupled NADH absorbance 340 nm.

Row | SMILES | outcome
1 | CCn1c(SCC(=O)Nc2ccc(Cl)cc2)nnc1C1CC1 | inactive
2 | COc1ccc(Br)cc1CNC(=O)C1CCN(S(=O)(=O)N2CCCC2)CC1 | inactive
3 | CCOCCCNC(=O)C1CCN(S(=O)(=O)CC)CC1 | inactive
4 | Cc1nc(NC(=O)c2ccco2)sc1C(=O)Nc1ccc(Br)cc1 | inactive
5 | O=c1c(-c2ccccc2)c(O)c2cccc3c2n1CCC3 | inactive
6 | COCCn1c(C)cc2c(c1=O)C(c1ccccc1F)C(C#N)=C(N)O2 (configuration not stated) | inactive
7 | CCNC(=O)CN(c1ccc(C)cc1)S(=O)(=O)c1ccc(SC)cc1 | inactive
8 | Cc1noc(C)c1CSc1nnc(-c2ccncc2)n1-c1cccc(Cl)c1C | inactive
9 | CCOC(=O)C1=C(O)C(=O)N(c2ccc(S(N)(=O)=O)cc2)C1c1ccc(OC)cc1 (configuration not stated) | inactive
10 | CN(C)c1ccc(-c2nc3ccccc3n2C)cc1 | inactive
11 | COCC(=O)N(C)c1nnc(-c2cnc(C)cn2)s1 | inactive
12 | Cc1ccc(S(=O)(=O)N2CCN(c3nc(C(C)C)c4c(c3C#N)CC(C)(C)OC4)CC2)cc1 | inactive
13 | CCOC(=O)C1CCN(C(=O)C2CCN(S(=O)(=O)N3CCCC3)CC2)CC1 | inactive
14 | CCOc1ccccc1-n1c(SCC(=O)Nc2ccc(CC)cc2)nc2n[nH]c(C)c2c1=N | inactive
15 | COc1ccc(S(=O)(=O)Nc2nnc(C)s2)cc1 | inactive
16 | COc1ccc2[nH]cc(C(=O)CN3CCCC(C)C3)c2c1 (configuration not stated) | inactive
17 | COc1ccc(NC(=O)c2ccco2)cc1NC(=O)c1ccc(C)cc1 | inactive
18 | COc1ccc(CNC(=O)C2CCN(S(=O)(=O)c3cccc4cccnc34)CC2)cc1 | inactive
19 | O=C(Nc1ccc(F)cc1)N(CCCN1CCOCC1)Cc1cc2cc3c(cc2[nH]c1=O)OCO3 | inactive
20 | CCOc1ccc(-c2nnc(SCC(=O)N3CCN(c4ccccc4)CC3)o2)cc1 | inactive
21 | Cc1cccc2cc(CN(CCN3CCCC3)C(=O)NC3CCCCC3)c(=O)[nH]c12 | inactive
22 | COc1ccccc1NC(=O)C1=C(C)NC2=C(C(=O)CCC2)C1c1ccc(C)o1 (configuration not stated) | inactive

Row | SMILES | outcome
23 | O=C(NCC1CCCO1)C1CC(=O)N(C2CCCCCC2)C1 (configuration not stated) | inactive
24 | Cc1cc(C)cc(CC2CC(=O)N(c3nc(C)cc(C)n3)C2=O)c1 (configuration not stated) | inactive
25 | O=C(CSc1cc(Cl)ccc1Cl)NCC1CCCO1 (configuration not stated) | inactive
26 | Cc1cccc(OCCCc2c(C)n[nH]c2C)c1 | inactive
27 | Cc1sc2ncnc(NCC(c3ccco3)N(C)C)c2c1C (configuration not stated) | inactive
28 | CCC(C)(C)n1nnnc1C(c1cccnc1)N1CCCc2ccccc21 (configuration not stated) | inactive
29 | COCCNC(=O)c1ccc2c(c1)NC(=O)CS2 | inactive
30 | CCOc1ccc2[nH]c(=O)c(CN(CCO)C(=O)c3ccc(Br)cc3)cc2c1 | inactive
31 | CN1CCN(S(=O)(=O)c2cccc(S(=O)(=O)c3ccc(Cl)c(Cl)c3)c2)CC1 | inactive
32 | CC(C)(C)NS(=O)(=O)c1ccc(NS(=O)(=O)c2ccc(F)cc2)cc1 | inactive
33 | CCn1c(SC(=O)NC2CCCCC2)nnc1-c1cccs1 | inactive
34 | O=C(Cn1cc(C(F)(F)F)ccc1=O)N1CCN(S(=O)(=O)c2ccccc2)CC1 | inactive
35 | CCc1ccc(OCc2nnc(SCC(=O)NCc3ccco3)o2)cc1 | inactive
36 | CC(=O)N1CCC(N2CCN(c3ccccc3F)CC2)CC1 | inactive
37 | CCCCS(=O)(=O)C(=C1Nc2ccccc2N1)S(=O)(=O)CCCC | inactive
38 | Cn1c(=O)c2c(-c3ccccc3)n(C3CCCCC3)cc2n(C)c1=O | inactive
39 | CCOC(=O)c1[nH]nc(C(=O)c2ccc(Br)cc2)c1O | inactive
40 | CCC(C)(C)NC(=O)C(c1ccccc1F)N(Cc1ccco1)C(=O)c1csnn1 (configuration not stated) | inactive
41 | CC12C=CC3(CN(Cc4ccccc4)C(=O)C3C1C(=O)NC1CC1)O2 (configuration not stated) | inactive
42 | CCOCCCNC(=O)C1CCN(S(=O)(=O)N2CC(C)CC(C)C2)CC1 (configuration not stated) | inactive
43 | O=C(CSc1nnc(COc2ccccc2)n1-c1ccccc1)c1cccs1 | inactive
44 | Cc1cc(=O)n2[nH]c(-c3ccccc3Cl)cc2n1 | inactive

Row | SMILES | outcome
45 | O=C(NCc1ccccc1)C1C2C=CC3(CN(Cc4cccnc4)C(=O)C13)O2 (configuration not stated) | inactive
46 | Cc1ccc(CN2CCN(C(=O)C3CCC3)CC2)cc1 | inactive
47 | Cc1ccc(C)c(N(CC(=O)NC2CCCC2)C(=O)CCCC(=O)Nc2ccccn2)c1 | inactive
48 | COc1ccc(CN2C(=O)c3ccccc3C2C(=O)NC2CCCC2)c(OC)c1 (configuration not stated) | inactive
49 | C[C@]12CC[C@@H]3c4ccc(OS(=O)(=O)O)cc4CC[C@H]3[C@@H]1CCC2=O | inactive
50 | COc1ccc2c(c1OC)C(=O)OC2C1c2c(cc3c(c2OC)OCO3)CCN1C (configuration not stated) | inactive
51 | Cn1c2ccccc2c2cnn(CC(=O)N3CCN(c4ncccn4)CC3)c(=O)c21 | inactive
52 | O=C(NCCCN1CCN(Cc2ccccc2)CC1)C1CCN(S(=O)(=O)N2CCCC2)CC1 | inactive
53 | CCOC(=O)N1CCN(C(=O)C2CCN(S(=O)(=O)N3CCCC3)CC2)CC1 | inactive
54 | CCOC(=O)CSc1n[nH]c(-c2cccnc2)n1 | inactive
55 | Cn1nc(CC(=O)Nc2ncc(Br)s2)c2ccccc2c1=O | inactive
56 | COC(=O)[C@@H](NC(=O)N1CCN(c2cccc(C(F)(F)F)c2)CC1)C(C)C | inactive
57 | CCOc1ccc(C2c3c(oc4cc(C)c(C)cc4c3=O)C(=O)N2CCCN(C)C)cc1OC (configuration not stated) | inactive
58 | CCOCC(=O)NC1CCSC1=O (configuration not stated) | inactive
59 | CC1(C)CC(=O)c2cc(OCC(=O)N3CCN(c4ccccc4F)CC3)ccc2O1 | inactive
60 | CCn1c(COc2ccccc2C)nnc1SCC(=O)N1CCCCC1 | inactive
61 | O=C(NCCCNC(=O)c1ccccn1)c1ccccn1 | inactive
62 | CN1C(=O)OC2(C)CCc3ccccc3C12C (configuration not stated) | inactive
63 | CCOC(=O)N1CCN(C(=O)Cn2nc(-c3ccc(Cl)cc3)ccc2=O)CC1 | inactive
64 | Cc1c2c(nc3c(C(=O)NC4CCCCC4C)cnn13)CCCC2 (configuration not stated) | inactive
65 | Cc1ccnc(N2CCC(C(=O)Nc3ccc(Oc4ccccc4)cc3)CC2)n1 | inactive
66 | Cc1ccc(C(c2nnnn2CC2CCCO2)N2CCN(C(=O)c3ccco3)CC2)cc1 (configuration not stated) | inactive

Row | SMILES | outcome
67 | c1ccc(NC(=NCc2ccco2)c2ccccc2)cc1 | inactive
68 | CC(=O)c1ccc(Oc2ncnc3sccc23)c(CN2CCOCC2)c1 | inactive
69 | COc1ccc(CNC(=O)C2CCN(S(=O)(=O)N3CCOCC3)CC2)cc1 | inactive
70 | CCOc1cc(N2CCOCC2)c(OCC)cc1NC(=O)Cc1ccc(OC)c(OC)c1 | inactive
71 | Cc1n[nH]c(C)c1N1C(=O)c2cccc3c(N4CCCCCC4)ccc(c23)C1=O | inactive
72 | CCN(CC)CCSc1nc(O)c(C(C)C)c(=O)[nH]1 | inactive
73 | CCc1nn(C(C)C(=O)NC(C)CCc2ccco2)c(=O)c2cc3occc3n12 (configuration not stated) | inactive
74 | CC(=O)N1CCN(c2nc3cc4c(cc3nc2NS(=O)(=O)c2ccccc2)OCCO4)CC1 | inactive
75 | Cc1nnc(SCc2ccccc2)n1N | inactive
76 | CCOc1cc(C(=O)NCc2nnc(SCC(=O)OC)n2C)cc(OCC)c1OCC | inactive
77 | CC(=O)Nc1c(O)n(C)c2ccccc12 | inactive
78 | Cc1nc(SC2C=CS(=O)(=O)C2)n[nH]1 (configuration not stated) | inactive
79 | CCOC(=O)c1ccc(NC(=O)CSc2nc(C)cc(=O)[nH]2)cc1 | inactive
80 | Cc1nonc1NC(=O)CSc1ccc(-c2ccccc2)nn1 | inactive
81 | O=S(=O)(Nc1ccc(S(=O)(=O)N2CCOCC2)cc1)c1ccccc1 | inactive
82 | COC(=O)C1=C(C)OC(N)=C(C#N)C1c1cc(OC)c(OCC(N)=O)cc1Cl (configuration not stated) | inactive
83 | Cc1ccsc1C1C(C(=O)O)c2ccccc2C(=O)N1C (configuration not stated) | inactive
84 | CCOc1ccc(Nc2nc(Cc3nnc(SCC(N)=O)o3)cs2)cc1 | inactive
85 | COc1ccc(OC)c(CNC(=O)C2CCCN(c3nc4ccccc4o3)C2)c1 (configuration not stated) | inactive
86 | COCCCNC(=O)CN(C1CCCCC1)S(=O)(=O)c1ccc(C)cc1 | inactive
87 | COc1cc2nc(C3CCC3)n(NC(=O)C3CCCC(OC)C3)c(=O)c2cc1OC (configuration not stated) | inactive
88 | O=c1oc2ccccc2n1CCn1c2ccccc2c2nc3ccccc3nc21 | inactive

Row | SMILES | outcome
89 | COc1cccc(OC)c1OCC(O)CN1CCN(c2ccccc2)CC1 (configuration not stated) | inactive
90 | Cc1occc1C(=O)Nc1nnc(C(F)(F)F)s1 | inactive
91 | COC(=O)c1cn(-c2ccccc2)nc1C(=O)OC | inactive
92 | Cc1c2cnn(CC(=O)N3CCC4(CC3)OCCO4)c(=O)c2c(C)n1Cc1ccc(F)cc1 | inactive
93 | Cn1nnnc1Sc1ncnc2scc(-c3ccc(F)cc3)c12 | inactive
94 | CCc1nnc(NC(=O)CSc2nnc(Cc3cccn3C)n2C)s1 | inactive
95 | CCOCCCNC(=O)C1CCN(S(=O)(=O)N(CC(C)C)CC(C)C)CC1 | inactive
96 | CC1(C)CC(C)(O)P(=O)(c2ccccc2)O1 (configuration not stated) | inactive
97 | CC(OC(=O)c1cccs1)C(=O)NCC1CCCO1 (configuration not stated) | inactive
98 | CCS(=O)(=O)N1CCC(C(=O)NCCc2ccccc2)CC1 | inactive
99 | O=c1cc(O)c2c(=O)[nH]c(=O)n(-c3ccccc3)c2[nH]1 | inactive
100 | COc1ccc2c(c1)c(C(=O)CNc1nc(C)cs1)c(C)n2C | inactive
101 | c1cncc(C(c2nnnn2C2CCCC2)N2CCCC2)c1 (configuration not stated) | inactive
102 | COc1cc(OC)nc(NC(=O)NS(=O)(=O)c2ccc(OC(F)(F)F)cc2)n1 | inactive
103 | O=C(CN(C(=O)CNS(=O)(=O)c1ccccc1)C1CCCC1)NCc1ccco1 | inactive
104 | COCC(C)n1c(COc2ccccc2F)nnc1SCc1c(C)noc1C (configuration not stated) | inactive
105 | CC(c1ccccc1)C(CC(=O)O)C(=O)NC1CCCCC1 (configuration not stated) | inactive
106 | Cc1ccccc1OCCCCc1c(C)n[nH]c1C | inactive
107 | CCOc1ccccc1C(=O)NCC(=O)OCC(=O)c1ccc2c(c1)OCCO2 | inactive
